Laboratory results as given in ChEMBL document CHEMBL1287699, “N,N-Bis-(8-hydroxyquinoline-5-yl methyl)-benzyl substituted amines (HQNBA): peroxisome proliferator-activated receptor (PPAR-γ) agonists with neuroprotective properties” (Bioorg Med Chem Lett, 2010).
The source made the active and inactive calls. The rule behind the calls is not given here.

Experiments:
HT-22 [1] = test: Inhibition of glutamate-induced decrease in GSH level in mouse HT22 cells at 1 uM after 24 hrs; type: functional, cell-based
HT-22 [2] = test: Neuroprotective activity in mouse HT22 cells assessed as protection against glutamate-induced toxicity at 0.5 to 1 uM after 24 hrs by MTT assay relative to control; type: functional
HT-22 [3] = test: Neuroprotective activity in mouse HT22 cells assessed as protection against glutamate-induced toxicity after 24 hrs by MTT assay; type: functional, cell-based; details: HT-22, 24 h
[4] = Cytotoxicity against mouse hippocampal HT22 cells at 1 uM after 24 hrs by MTT assay; type: cell-based, Hippocampus; details: ht-22, 24 h
HT-22 [5] = test: Neuroprotective activity in mouse HT22 cells assessed as protection against glutamate-induced toxicity at 1 uM after 24 hrs by MTT assay in presence of GW-9662; type: functional, cell-based

Structure (SMILES) | Activity (HT-22 [1]) | %max (HT-22 [2]) [%] | EC50 (HT-22 [3]) [nM] | Activity [4] [%] | Activity (HT-22 [5])
Cc1c(C)c2c(c(C)c1O)CCC(C)(COc1ccc(CC3SC(=O)NC3=O)cc1)O2 (stereo not drawn) | inactive |  |  |  | 
Cc1ccc(CN(Cc2ccc(O)c3ncccc23)Cc2ccc(O)c3ncccc23)cc1 | Active | 100 | 125 | 39.4 | inactive
O=C(Nc1ccccc1)c1cc([N+](=O)[O-])ccc1Cl |  |  |  |  | inactive
Oc1ccc(CN(Cc2ccc(C(F)(F)F)cc2)Cc2ccc(O)c3ncccc23)c2cccnc12 | Active | 100 | 621 | 33.7 | inactive
Oc1ccc(CN(Cc2cccc(C(F)(F)F)c2)Cc2ccc(O)c3ncccc23)c2cccnc12 | Active | 99 | 168 | 40.7 | inactive
COc1cc(/C=C/c2cc(/C=C/c3ccc(O)c(OC)c3)n(-c3ccccc3)n2)ccc1O |  |  |  |  | Active
Oc1ccc(CN(Cc2cccs2)Cc2ccc(O)c3ncccc23)c2cccnc12 | Active | 97 | 383 | 34 | inactive
